# Values of other authors in patent US4335127A, “Piperidinylalkyl quinazoline compounds, composition and method of use” (Janssen Pharmaceutica, N.V., priority 1979, dated 1982).
# System: cyanosis of ears and extremities induced by compound 48/80 in rats
# Details: rats treated with compound 48/80; cited from earlier work
# Note: test concentration or dose not given here.
row,SMILES,prevention of the cyanosis of ears and extremities (known serotonin antagonists)
1,CN1CCN2c3ccccc3Cc3ccccc3C2C1 (stereo not drawn) [mianserin],prevent completely
2,NC(=O)C1(N2CCCCC2)CCN(CCCC(=O)c2ccc(F)cc2)CC1 [pipamperone],prevent completely
3,CN(C)CCCSc1ccccc1NC(=O)/C=C/c1ccccc1 [cinanserin],prevent completely
4,CC[C@@H](CO)NC(=O)[C@@H]1C=C2c3cccc4c3c(cn4C)C[C@H]2N(C)C1 [methysergide],prevent completely
5,O=C(CCCN1CCC2(CC1)C(=O)NCN2c1ccccc1)c1ccc(F)cc1 [spiperone],prevent completely
6,CN1CCC(=C2c3ccccc3CCc3sccc32)CC1 [pizotifen],prevent completely
7,CN1CCC(=C2c3ccccc3C=Cc3ccccc32)CC1 [cyproheptadine],prevent completely
8,CN1C[C@H](CNC(=O)OCc2ccccc2)C[C@@H]2c3cccc4c3c(cn4C)C[C@H]21 [metergoline],prevent completely

# System: lesions in the glandular area of the stomach and distension of the stomach induced by compound 48/80 in rats
# Details: rats treated with compound 48/80; cited from earlier work
SMILES,prevention of the abnormal gastric distension (known serotonin antagonists),prevention of the lesions in the glandular area of the stomach (known serotonin antagonists)
CN1CCN2c3ccccc3Cc3ccccc3C2C1 (stereo not drawn) [mianserin],prevent completely,prevent completely
NC(=O)C1(N2CCCCC2)CCN(CCCC(=O)c2ccc(F)cc2)CC1 [pipamperone],prevent completely,prevent completely
CN(C)CCCSc1ccccc1NC(=O)/C=C/c1ccccc1 [cinanserin],prevent completely,prevent completely
CC[C@@H](CO)NC(=O)[C@@H]1C=C2c3cccc4c3c(cn4C)C[C@H]2N(C)C1 [methysergide],prevent completely,prevent completely
O=C(CCCN1CCC2(CC1)C(=O)NCN2c1ccccc1)c1ccc(F)cc1 [spiperone],prevent completely,prevent completely
CN1CCC(=C2c3ccccc3CCc3sccc32)CC1 [pizotifen],prevent completely,prevent completely
CN1CCC(=C2c3ccccc3C=Cc3ccccc32)CC1 [cyproheptadine],prevent completely,prevent completely
CN1C[C@H](CNC(=O)OCc2ccccc2)C[C@@H]2c3cccc4c3c(cn4C)C[C@H]21 [metergoline],prevent completely,prevent completely
